Several values for one entry are separate records, joined by “and”; a condition that tells them apart may be missing. Identical values can stand only once. Inconclusive results and toxic doses are left out.

The subject of this test is BDF1 mice, intracerebral L1210 leukemia, survival T/C. The experiment in a line: NCI In Vivo Anticancer Drug Screen. Data for tumor model L1210 Leukemia (intracerebral) in B6D2F1 (BDF1) mice. The conditions noted are these: endpoint: mean survival time, higher = longer survival. The method, then:
The antitumor activity of compounds was measured in mice bearing transplantable tumors. Survival or tumor size were measured and the results are expressed as the measurement made in the treated group (T) divided by the measurement made in the vehicle treated control group (C). The tumor model used in this assay is L1210 Leukemia (intracerebral) in B6D2F1 (BDF1) mice

Setting [1] is: dose: 10.0 mg/kg/injection, schedule: Q01DX001 (ip), vehicle: other.
The mark [2] stands for this setting: dose: 30.0 mg/kg/injection, schedule: Q01DX001 (ip), vehicle: other.
[3] abbreviates: dose: 40.0 mg/kg/injection, schedule: Q01DX001 (ip), vehicle: other.
Setting [4] is: dose: 18.0 mg/kg/injection, schedule: Q01DX001 (ip), vehicle: carboxymethylcellulose (CMC).

With `COc1cc([C@@H]2c3cc4c(cc3[C@@H](OC3OC5COC(C)OC5C(O)C3O)[C@H]3COC(=O)[C@H]23)OCO4)cc(OC)c1O` (some centres undefined), the T/C reads like this: (dose: 2.0 mg/kg/injection, schedule: Q01DX009 (oral), vehicle: Klucel (hydroxypropylcellulose) (HPC)) 108 % of control; (dose: 4.0 mg/kg/injection, schedule: Q01DX009 (oral), vehicle: Klucel (hydroxypropylcellulose) (HPC)) 118 % of control; (dose: 12.0 mg/kg/injection, schedule: Q04DX003 (ip), vehicle: saline) 109 % of control; (dose: 16.0 mg/kg/injection, schedule: Q01DX009 (oral), vehicle: Klucel (hydroxypropylcellulose) (HPC)) 116 % of control; (dose: 18.0 mg/kg/injection, schedule: Q04DX003 (ip), vehicle: saline) 108 % of control; (dose: 27.0 mg/kg/injection, schedule: Q04DX003 (ip), vehicle: saline) 109 % of control. Also, the T/C runs as follows: (dose: 32.0 mg/kg/injection, schedule: Q01DX009 (oral), vehicle: Klucel (hydroxypropylcellulose) (HPC)) 94 % of control; (dose: 40.0 mg/kg/injection, schedule: Q04DX003 (ip), vehicle: saline) 118 % of control; (dose: 60.0 mg/kg/injection, schedule: Q04DX003 (ip), vehicle: saline) 110 % of control.
Consider `O=NN(CCF)C(=O)NC1CCC(NC(=O)N(CCF)N=O)CC1` (centres undefined), for which the T/C reads like this: under setting [1], 110 % of control; (dose: 25.0 mg/kg/injection, schedule: Q01DX001 (ip), vehicle: other) 120 % of control; under setting [2], 155 % of control; under setting [3], 193 % of control; (dose: 50.0 mg/kg/injection, schedule: Q01DX001 (ip), vehicle: other) 224 % of control; (dose: 60.0 mg/kg/injection, schedule: Q01DX001 (ip), vehicle: other) 202 % of control. Also, the T/C is 293 % of control and 329 % of control (dose: 80.0 mg/kg/injection, schedule: Q01DX001 (ip), vehicle: other); 294 % of control (dose: 110.0 mg/kg/injection, schedule: Q01DX001 (ip), vehicle: other); 319 % of control and 334 % of control (dose: 120.0 mg/kg/injection, schedule: Q01DX001 (ip), vehicle: other); 277 % of control (dose: 180.0 mg/kg/injection, schedule: Q01DX001 (ip), vehicle: other); 170 % of control (dose: 187.0 mg/kg/injection, schedule: Q01DX001 (ip), vehicle: other); 262 % of control (dose: 240.0 mg/kg/injection, schedule: Q01DX001 (ip), vehicle: other).
As to `CC(=O)c1ccc(NC(=O)N(CCCl)N=O)cc1`, the T/C runs as follows: (dose: 37.5 mg/kg/injection, schedule: Q01DX001 (ip), vehicle: carboxymethylcellulose (CMC)) 117 % of control; (dose: 50.0 mg/kg/injection, schedule: Q01DX001 (ip), vehicle: carboxymethylcellulose (CMC)) 118 % of control; (dose: 75.0 mg/kg/injection, schedule: Q01DX001 (ip), vehicle: carboxymethylcellulose (CMC)) 121 % of control.
Take `N#CCCN1c2ccccc2Sc2ccccc21`: the T/C runs as follows: (dose: 12.5 mg/kg/injection, schedule: Q04DX003 (ip), vehicle: Klucel (hydroxypropylcellulose) (HPC)) 100 % of control; (dose: 25.0 mg/kg/injection, schedule: Q04DX003 (ip), vehicle: Klucel (hydroxypropylcellulose) (HPC)) 96 % of control; (dose: 50.0 mg/kg/injection, schedule: Q04DX003 (ip), vehicle: Klucel (hydroxypropylcellulose) (HPC)) 109 % of control; (dose: 100.0 mg/kg/injection, schedule: Q04DX003 (ip), vehicle: Klucel (hydroxypropylcellulose) (HPC)) 104 % of control; (dose: 200.0 mg/kg/injection, schedule: Q04DX003 (ip), vehicle: Klucel (hydroxypropylcellulose) (HPC)) 98 % of control.
`O=NN(CCF)C(=O)NC1CCS(=O)(=O)CC1`: the T/C by setting is: (dose: 2.5 mg/kg/injection, schedule: Q01DX001 (ip), vehicle: other) 111 % of control; (dose: 2.9 mg/kg/injection, schedule: Q01DX001 (ip), vehicle: other) 108 % of control and 114 % of control; (dose: 3.75 mg/kg/injection, schedule: Q01DX001 (ip), vehicle: other) 118 % of control; (dose: 4.8 mg/kg/injection, schedule: Q01DX001 (oral), vehicle: other) 181 % of control; (dose: 5.0 mg/kg/injection, schedule: Q01DX001 (ip), vehicle: other) 124 % of control; (dose: 6.0 mg/kg/injection, schedule: Q01DX001 (ip), vehicle: other) 121 % of control. For the same molecule, the T/C is 165 % of control (dose: 7.0 mg/kg/injection, schedule: Q01DX001 (ip), vehicle: other); 163 % of control (dose: 7.5 mg/kg/injection, schedule: Q01DX001 (ip), vehicle: other); 183 % of control under setting [1]; 191 % of control (dose: 11.0 mg/kg/injection, schedule: Q01DX001 (ip), vehicle: other); 200 % of control and 315 % of control (dose: 11.0 mg/kg/injection, schedule: Q01DX001 (oral), vehicle: other); 150 % of control and 214 % of control (dose: 12.0 mg/kg/injection, schedule: Q01DX001 (ip), vehicle: other). In addition, the T/C is 202 % of control (dose: 15.0 mg/kg/injection, schedule: Q01DX001 (ip), vehicle: other); 284 % of control (dose: 16.0 mg/kg/injection, schedule: Q01DX001 (ip), vehicle: other); 322 % of control (dose: 20.0 mg/kg/injection, schedule: Q01DX001 (ip), vehicle: other); 477 % of control and 662 % of control (dose: 21.0 mg/kg/injection, schedule: Q01DX001 (oral), vehicle: other); 341 % of control and 410 % of control and 463 % of control (dose: 24.0 mg/kg/injection, schedule: Q01DX001 (ip), vehicle: other); 348 % of control under setting [2]. The T/C is, setting by setting: under setting [3], 305 % of control; (dose: 40.0 mg/kg/injection, schedule: Q01DX001 (oral), vehicle: other) 456 % of control and 486 % of control; (dose: 48.0 mg/kg/injection, schedule: Q01DX001 (ip), vehicle: other) 354 % of control; (dose: 80.0 mg/kg/injection, schedule: Q01DX001 (oral), vehicle: other) 86 % of control.
Regarding `CNC1=C(N2CC2)C(=O)C(NC)=C(N2CC2)C1=O`, the T/C was 106 % of control (dose: 0.05 mg/kg/injection, schedule: Q01DX009 (ip), vehicle: saline); 111 % of control (dose: 0.1 mg/kg/injection, schedule: Q01DX009 (ip), vehicle: saline); 160 % of control (dose: 0.2 mg/kg/injection, schedule: Q01DX009 (ip), vehicle: saline); 119 % of control (dose: 0.3 mg/kg/injection, schedule: Q01DX009 (ip), vehicle: saline); 103 % of control (dose: 0.4 mg/kg/injection, schedule: Q01DX009 (ip), vehicle: saline); 160 % of control (dose: 0.6 mg/kg/injection, schedule: Q01DX009 (ip), vehicle: saline).
Regarding `COc1cccc(NC(=O)N(CCCl)N=O)c1`, the T/C reads like this: under setting [4], 115 % of control; (dose: 27.0 mg/kg/injection, schedule: Q01DX001 (ip), vehicle: carboxymethylcellulose (CMC)) 115 % of control; (dose: 40.0 mg/kg/injection, schedule: Q01DX001 (ip), vehicle: carboxymethylcellulose (CMC)) 121 % of control; (dose: 60.0 mg/kg/injection, schedule: Q01DX001 (ip), vehicle: carboxymethylcellulose (CMC)) 97 % of control.
Take `O=NN(CCCl)C(=O)Nc1cccc(C(=O)O)c1`: the T/C (dose: 8.0 mg/kg/injection, schedule: Q01DX001 (ip), vehicle: carboxymethylcellulose (CMC)) was 95 % of control; the T/C (dose: 12.0 mg/kg/injection, schedule: Q01DX001 (ip), vehicle: carboxymethylcellulose (CMC)) was 108 % of control; the T/C under setting [4] was 106 % of control.

The values above are taken from PubChem BioAssay AID252 (DTP/NCI, 2004).
